# Test results reported in patent EP1525218B1, “BICYCLIC OLIGOPEPTIDES AND THEIR USE AS GLUCAGON RECEPTOR ANTAGONISTS” (Boehringer Ingelheim Pharma GmbH & Co.KG, priority 2002, dated 2004).
# Like-named read-outs stand apart in the source and are kept apart here. Positions of bridges follow the written chain, without caps; N, C: chain ends. Residues, ends and D or L forms follow the SMILES beside them.
# What was measured:
# [1] = biological target: T1, human glucagon receptor (Homo sapiens, UniProt P47871); assay: Glucagon binding assay (competition binding with 125I-glucagon, BHK-21 cell membranes)
# T1 construct: expressed in transfected cells; host or cells: BHK-21(C-13) baby hamster kidney cells, stably transfected (pcDNA3.1 construct, G-418 selection); plasma membranes
# Method: Binding of peptides to the glucagon receptor was assayed in a competition binding-assay using a membrane fraction containing the cloned human glucagon receptor and radiolabeled glucagon. The cDNA coding for the human glucagon receptor was cloned into expression vector pcDNA3.1 (Invitrogene). Baby hamster kidney cells (BHK-21(C-13) cells (ATCC)) were transfected with the expression construct for the human glucagon receptor and a stably transfected cell clone was isolated after selection with G-418 (Gibco). Plasma membranes containing the human glucagon receptor were prepared from stably transfected BHK-21 cells. Cells were grown to confluence, washed and detached with ice cold PBS buffer (Gibco), containing 0.05% EDTA and collected in PBS buffer. The cells were collected by centrifugation and suspended in 20 volumes of ice-cold tris buffer (10 mM tris/HCl, pH7.2; 0.01 mM PMSF (Phenylmethylsulfonyl fluoride)) and incubated for 90 minutes. […] The protein-bound radioactivity is separated from unbound ligand by filtration and washing on a Multiscreen-[…] (Millipore) using GC/B filters (Packard) and measured after addition of 20 μl Microscint 20 in a topcount scintillation counter (Packard). The non-specific binding is defined as radioactivity bound in the presence of 1 μM glucagon (Wherl GmbH). Accordingly an IC50 value can be calculated from the results obtained in the above test method. […]
# [2] = Metabolic stability with liver microsomes; format: in vitro ADME; settings: substrate initial conc. 1 µM, 37°C, up to 45 min
# Method: (§1) Incubations with preparations of microsomes and cytosol and with plasma under conditions as described below are suitable to investigate the metabolic stability of test compounds (e.g. oxidative metabolism reactions and hydrolysis by esterases). The metabolic stability of the test compounds of examples 1 and 2 is investigated in liver microsomes and cytosol of humans, dogs and rats and in plasma of humans and rats.
# (§2) Incubations of test compounds (final concentration: 1 µM) are performed with liver microsomes and cytosol (0.5 mg protein/ml) in Tris buffer (Tris-(hydroxymethyl)-aminomethane) pH 7.4 (0.1 M) containing magnesium chloride (5 mM) at 37°C for up to 45 min in a total volume of 100 µl. The reaction is initiated by addition of β-nicotinamide adenine dinucleotide phosphate, reduced form (NADPH, 1 mM) and terminated by addition of acetonitrile. After vortex mixing and centrifugation the supernatants are analyzed.
# (§3) The samples are analyzed by on-line solid phase extraction and reversed phase HPLC coupled to electro-spray ionization tandem mass spectrometry. The measurements are performed on a triple quad mass spectrometer Quattro II (Micromass, Manchester, UK). The instrument operates at nominal mass resolution in SIR-mode. The analytes are quantified by detection of their quasimolecular ions [M+2H]^2+ m/z 1019 (Example 1) and m/z 1026 (Example 2).
# [3] = Stability in plasma; format: in vitro ADME; settings: Rat Plasma; substrate initial conc. 1 µM; 37°C, up to 45 min
# Method: as §1
# Incubations of test substrates (final concentration: 1 µM) are performed with human and rat plasma (heparin) containing 0.1 M Tris buffer pH 7.4. The reaction is initiated by addition of the test compound at 37°C for up to 45 min and terminated by addition of acetonitrile. After vortex mixing and centrifugation the supernatants are analyzed.
# as §3
# [4] = Solubility in buffer; format: physicochemical
# Text: and the following solubilities:
# [5] = Metabolic stability with liver cytosol; format: in vitro ADME; settings: substrate initial conc. 1 µM, 37°C, up to 45 min
# Method: as §1, §2, §3
# T1 sequence (P47871 26-477): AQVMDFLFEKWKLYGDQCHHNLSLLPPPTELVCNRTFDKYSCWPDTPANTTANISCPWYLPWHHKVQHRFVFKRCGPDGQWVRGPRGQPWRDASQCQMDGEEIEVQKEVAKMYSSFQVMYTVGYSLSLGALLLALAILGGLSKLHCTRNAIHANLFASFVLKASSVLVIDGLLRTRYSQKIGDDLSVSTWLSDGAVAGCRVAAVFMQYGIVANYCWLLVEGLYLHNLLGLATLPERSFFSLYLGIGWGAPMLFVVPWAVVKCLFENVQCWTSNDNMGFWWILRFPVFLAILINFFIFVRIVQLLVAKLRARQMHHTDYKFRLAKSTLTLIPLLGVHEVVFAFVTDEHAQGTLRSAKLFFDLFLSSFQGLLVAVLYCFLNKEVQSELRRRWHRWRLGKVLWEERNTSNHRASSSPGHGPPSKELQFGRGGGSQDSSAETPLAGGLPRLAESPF
Compound,IC50 [1] [nM],"Half-lives, (t½ [min]) ([2]; Dog Micros)","Half-lives, (t½ [min]) ([2]; Human Micros)","Half-lives, (t½ [min]) ([2]; Rat Micros)","Half-lives, (t½ [min]) [3]",solubilities ([4]; Buffer pH 3.0) [mg/mL],solubilities ([4]; Buffer pH 7.4) [mg/mL],solubilities ([4]; Buffer pH 10.0) [mg/mL],"IC50 ([1]; competition with 125I-glucagon, membranes with cloned human glucagon receptor, read-out: IC50) [nM]","Half-lives, (t½ [min]) ([5]; Dog Cytosol)","Half-lives, (t½ [min]) ([5]; Human Cytosol)","Half-lives, (t½ [min]) ([5]; Rat Cytosol)"
CC[C@H](C)[C@@H]1NC(=O)[C@@H]2CC(=O)NCC(=O)N[C@@H](CC(C)C)C(=O)N3CCC[C@H]3C(=O)N[C@@H](Cc3c[nH]c4ccccc34)C(=O)NCC(=O)N[C@@H](CSSC[C@@H](C(=O)OC)NC(=O)[C@H](C)NC(=O)[C@H](Cc3c[nH]c4ccccc34)NC(=O)[C@@H]3CCCN3C(=O)[C@H]([C@@H](C)O)NC(=O)[C@H](CC(N)=O)NC(=O)[C@H](Cc3c[nH]c4ccccc34)NC(=O)CNC(=O)[C@@H]3CCCN3C1=O)C(=O)N1CCC[C@H]1C(=O)N[C@@H](CO)C(=O)N2 [Example 2] (GLPWGCPSDIPGWNTPWAC-OMe; disulfide 6-19; lactam N-9),135,stable,stable,stable,stable,0.003,0.002,0.004,,,,
CC[C@H](C)[C@@H]1NC(=O)[C@@H]2CC(=O)NCC(=O)N[C@@H](CC(C)C)C(=O)N3CCC[C@H]3C(=O)N[C@@H](Cc3c[nH]c4ccccc34)C(=O)NCC(=O)N[C@@H](CSSC[C@@H](C(=O)O)NC(=O)[C@H](C)NC(=O)[C@H](Cc3c[nH]c4ccccc34)NC(=O)[C@@H]3CCCN3C(=O)[C@H]([C@@H](C)O)NC(=O)[C@H](CC(N)=O)NC(=O)[C@H](Cc3c[nH]c4ccccc34)NC(=O)CNC(=O)[C@@H]3CCCN3C1=O)C(=O)N1CCC[C@H]1C(=O)N[C@@H](CO)C(=O)N2 [Example 1] (GLPWGCPSDIPGWNTPWAC-OH; disulfide 6-19; lactam N-9),,stable,stable,stable,stable,0.003,0.120,0.092,100,stable,stable,stable
